Consider eleven molecules from patent publication EP1493438A1, “Vanilloid receptor (VR) inhibitors for treatment of Human Immunodeficiency Virus (HIV)-mediated pain states” (Bayer HealthCare AG, priority 2003, dated 2005).

In general, IC50 refers to the midpoint of a concentration-inhibition curve.

The structures appear in SMILES notation.

In one experiment the test system is rat DRG neurons. The experiment is described as follows: Inhibition of gp120-mediated CGRP-release from rat DRG neurons (Method B). The conditions noted are these: for IC50: Rattus norvegicus, DRG neuron; for inhibition of gp120-mediated CGRP release from DRG neurons: result in words.
Experiment [1] relates to rat sciatic nerve. The experiment is described as follows: gp120-mediated CGRP release from rat sciatic nerve in the presence or absence of VR1 inhibitors (Method C). To be noted: for CGRP release: gp120 250 pg/ml in the presence of CAZ (1 µM) or Cpd. 1 (20 nM); for block of CGRP release from gp120-stimulated sciatic nerve: result in words.
Experimental: After 5 min, 10 min and 20 min supernatant was substituted with fresh solution or RAB buffer pH 7.4 and the samples placed on ice until analysis. All samples were analyzed by EIA for CGRP release and normalized by the dry weight of the particular sciatic nerve.
Male Wistar rats (180-220 g) are anesthetized using Isofluran, Dinitricoxide and Oxygen (5:68:27 (v/v/v)) in a vaporisator. The hind legs are shaved and opened along the femur. Using tweezers and scissors the Musculus gluteus superficialis and Musculus bicepsfemoris are separated gaining access to the Nervus ischiadicus. The Nervus ischiadicus is cut proximally 1 cm before entry into the spine and laterally at the branching of Nervus fibularis and Nervus tibialis. […] The fixed nerve is transferred to a 1.5 ml eppendorf tube containing 300 µl RAB, pH 7.4 at RT.
To reset all samples, sciatic nerve preparations are transferred 5 min prior to stimulation to fresh 300 µl of RAB pH 7.4 (prestimulation ― point zero). Stimulation is performed for 5 or 10 min with Capsaicin solution (100 nM Capsaicin in RAB pH 7.4), RAB pH 4.5 or preheated RAB pH 7.4 (50°C) in the presence or absence of inhibitors. To evaluate post-stimulation CGRP-release sciatic nerve preparations are transferred in 5-min-intervals to fresh tubes containing RAB pH 7.4. Supernatants of each sample are transferred to EIA plates (CGRP Release Kit, SpiBio, Paris, France) and analyzed in triplicate (3 x 100µl) according to the manufacterer's protocol. Upon completion of the experiment the sciatic nerve preparations are carefully removed from the spatula, dried on 3MM paper and weighed. CGRP concentrations obtained from the CGRP-release EIA are finally normalized to the dry weight of the sciatic nerve preparations.
The next experiment deals with HIV patients. The conditions noted are these: cited from earlier work; for efficacy in clinical trails investigating HIV-mediated neuropathic pain: Shlay et al. (1998), Kieburtz et al. (1998).
Experiment [2] has as its system rat sciatic nerve. The experiment is described as follows: CGRP-release from isolated rat sciatic nerve upon stimulation (Method C). The conditions noted are these: Capsaicin 100 nM, t0-t5 stimulation period.

With `O=C(NCc1ccc(OC(F)(F)F)cc1)Nc1cccc2c1CC(O)CC2` (centres unmarked) [Cpd. Example 1, N-(7-hydroxy-5,6,7,8-tetrahydro-naphthalen-1-yl)-N'-(4-trifluoromethoxy-benzyl)-urea], the IC50 in the experiment with rat DRG neurons is 0.44 nM. In the experiment on rat DRG neurons, the “inhibition of gp120-mediated CGRP release from DRG neurons” value (“inhibition” below) is on record as “completely inhibited”. Besides, the CGRP release in the experiment on rat sciatic nerve [1] (time 0 min), in the experiment on rat sciatic nerve [1] (time 5 min), with rat sciatic nerve [1] (time 10 min), in the experiment with rat sciatic nerve [1] (time 20 min) and with rat sciatic nerve [1] (time -5 min) was 0 throughout. In addition, the “block of CGRP release from gp120-stimulated sciatic nerve” value in the experiment on rat sciatic nerve [1] is recorded as “capable to block CGRP release”.
In the case of `N#CC(=C(/N)Sc1ccccc1N)/C(C#N)=C(\N)Sc1ccccc1N` [Compound U0126], in the experiment with rat DRG neurons, it took 1.9 nM to reach half-maximal inhibition (IC50) and the “inhibition” value was “completely inhibited”.
Consider `C[S+]([O-])c1ccc(-c2nc(-c3ccncc3)c(-c3ccc(F)cc3)[nH]2)cc1` (centres unmarked) [SB203580], for which the “inhibition” value in the experiment with rat DRG neurons is “completely inhibited”.
`CC(Cc1ccc(O)c(O)c1)C(C)Cc1ccc(O)c(O)c1` (centres unmarked) [NGDA, Nordihydroguaiaretic Acid]: in the experiment with rat DRG neurons, the midpoint of inhibition, the IC50, lay at 43000 nM and the “inhibition” value was “completely inhibited”.
For the molecule `COc1cccc(-c2cc(=O)c3ccccc3o2)c1N` [PD98059], in the experiment with rat DRG neurons, the IC50 came out at 9.36 nM and the “inhibition” value was “completely inhibited”.
Taken in the same sequence, the figures for `CCN(CC)CCCC(C)Nc1c2ccc(Cl)cc2nc2ccc(OC)cc12` (centres unmarked) [QN, Quinacrine] were 1530 nM and “completely inhibited”.
Consider `Cc1cccc(C)c1OCC(C)N` (centres unmarked) [Mexiletine], for which, in the experiment with HIV patients, the “efficacy in clinical trails investigating HIV-mediated neuropathic pain” value is recorded as “completely ineffective”.
`Oc1cc2c(cc1O)CN(C(=S)NCCc1ccc(Cl)cc1)CCC2` [CAZ, Capsazepin]: in the experiment on rat DRG neurons, the IC50 was found to be 109 nM and the “inhibition” value is recorded as “completely inhibited”. For the same molecule, the “block of CGRP release from gp120-stimulated sciatic nerve” value in the experiment with rat sciatic nerve [1] is “capable to block CGRP release”.
As for `CN(C)CCC=C1c2ccccc2CCc2ccccc21` [Amitriptyline], the “efficacy in clinical trails investigating HIV-mediated neuropathic pain” value in the experiment on HIV patients is given as “completely ineffective”.
Take `COc1cc(CNC(=O)CCCC/C=C/C(C)C)ccc1O` [CAPS, Capsaicin]: the CGRP-release is 0.05923 ng/mg ng CGRP/mg nerve dry weight in the experiment on rat sciatic nerve [2] (time 0 min); 5.9+/-1.3 ng/mg ng CGRP/mg nerve dry weight with rat sciatic nerve [2] (time 5 min); 5.3+/-0.2 ng/mg ng CGRP/mg nerve dry weight in the experiment with rat sciatic nerve [2] (time 10 min); 4.0+/-0.1 ng/mg ng CGRP/mg nerve dry weight in the experiment on rat sciatic nerve [2] (time 20 min); 0 ng CGRP/mg nerve dry weight in the experiment with rat sciatic nerve [2] (time -5 min). In addition, the “pain in HIV patients with chronic DSP” value with HIV patients (randomized, double-masked clinical trail, Paice et al. (2000)) is “strongly increased pain”.
In the case of `CC(C)Cc1ccc(C(C)C(=O)O)cc1` (centres unmarked) [Ibuprofen], in the experiment with rat DRG neurons, the “inhibition” value was “can not inhibit”.
